Columns and labels:
[1] = biological target: T1, Serine/threonine-protein kinase ULK1 (Homo sapiens, UniProt O75385); experiment: ADP Glo Kinase Activity Assay
T1 sequence (O75385 whole entry): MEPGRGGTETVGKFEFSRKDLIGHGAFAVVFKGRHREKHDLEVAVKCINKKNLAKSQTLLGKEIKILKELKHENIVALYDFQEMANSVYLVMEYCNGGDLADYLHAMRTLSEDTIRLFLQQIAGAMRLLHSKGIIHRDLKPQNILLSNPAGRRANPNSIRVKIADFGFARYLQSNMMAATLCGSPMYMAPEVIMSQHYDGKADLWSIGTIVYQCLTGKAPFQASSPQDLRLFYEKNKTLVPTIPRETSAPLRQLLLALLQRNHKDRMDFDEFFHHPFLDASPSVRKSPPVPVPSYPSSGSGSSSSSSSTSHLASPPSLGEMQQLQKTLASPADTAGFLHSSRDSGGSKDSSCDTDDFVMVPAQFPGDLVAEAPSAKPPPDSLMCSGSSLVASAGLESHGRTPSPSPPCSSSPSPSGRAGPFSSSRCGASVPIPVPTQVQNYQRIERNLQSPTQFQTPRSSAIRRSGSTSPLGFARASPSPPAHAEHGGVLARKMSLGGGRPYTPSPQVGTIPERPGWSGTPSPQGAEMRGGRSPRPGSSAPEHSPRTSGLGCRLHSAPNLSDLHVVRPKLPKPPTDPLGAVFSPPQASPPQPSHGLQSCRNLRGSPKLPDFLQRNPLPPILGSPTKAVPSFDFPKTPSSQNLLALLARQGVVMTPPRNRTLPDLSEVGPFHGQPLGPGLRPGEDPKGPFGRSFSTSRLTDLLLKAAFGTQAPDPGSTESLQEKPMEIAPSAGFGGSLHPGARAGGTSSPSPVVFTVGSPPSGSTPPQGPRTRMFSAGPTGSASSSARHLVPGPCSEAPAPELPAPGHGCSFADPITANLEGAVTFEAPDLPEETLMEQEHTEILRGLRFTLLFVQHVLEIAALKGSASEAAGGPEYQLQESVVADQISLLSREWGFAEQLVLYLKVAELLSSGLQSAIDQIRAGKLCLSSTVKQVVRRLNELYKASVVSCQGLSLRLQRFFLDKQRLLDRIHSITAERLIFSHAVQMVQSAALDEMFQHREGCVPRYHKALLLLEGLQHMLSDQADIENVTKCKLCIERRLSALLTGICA
Description: (§1) Table 3: ULK1 inhibitor potency was determined using the luminescent ADP Glo Kinase Assay (Promega), a universal ADP detection system that measures kinase activity by quantifying the amount of ADP produced during a kinase reaction. ULK1 kinase reactions are performed in a standard 96-well microplate (20 uL reaction volume) at 25° C. for 40 minutes in the presence or absence of the test compound (12-point dilution series starting at 10 uM). Addition of MBP substrate and ATP initiates the kinase reaction.The standard ADP Glo assay is performed in two steps. In step one, following the kinase reaction, an equal volume of ADP-Glo™ Reagent (20 uL) is added to terminate the kinase reaction and deplete the remaining ATP. In the second step, the Kinase Detection Reagent (10 uL) is added to simultaneously convert ADP to ATP and allow the newly synthesized ATP to be measured using a luciferase/luciferin reaction. Step two of the ADP Glo assay is performed in a white 384-well plate (20 uL final volume). Thirty minutes after the addition of the Detection reagent, light generated from the luciferase reaction is measured (1 second exposure) using a microplate compatible luminometer (CLARIOstar, BMG Labtech).Inhibition of ULK1 kinase activity is determined for each test compound by comparison to DMSO only control wells.

[2] = biological target: T2, Serine/threonine-protein kinase ULK1 [1-649] (UniProt O75385); experiment: ADP Glo Kinase Activity Assay
T2 construct: 1-649
T2 sequence (O75385 whole entry): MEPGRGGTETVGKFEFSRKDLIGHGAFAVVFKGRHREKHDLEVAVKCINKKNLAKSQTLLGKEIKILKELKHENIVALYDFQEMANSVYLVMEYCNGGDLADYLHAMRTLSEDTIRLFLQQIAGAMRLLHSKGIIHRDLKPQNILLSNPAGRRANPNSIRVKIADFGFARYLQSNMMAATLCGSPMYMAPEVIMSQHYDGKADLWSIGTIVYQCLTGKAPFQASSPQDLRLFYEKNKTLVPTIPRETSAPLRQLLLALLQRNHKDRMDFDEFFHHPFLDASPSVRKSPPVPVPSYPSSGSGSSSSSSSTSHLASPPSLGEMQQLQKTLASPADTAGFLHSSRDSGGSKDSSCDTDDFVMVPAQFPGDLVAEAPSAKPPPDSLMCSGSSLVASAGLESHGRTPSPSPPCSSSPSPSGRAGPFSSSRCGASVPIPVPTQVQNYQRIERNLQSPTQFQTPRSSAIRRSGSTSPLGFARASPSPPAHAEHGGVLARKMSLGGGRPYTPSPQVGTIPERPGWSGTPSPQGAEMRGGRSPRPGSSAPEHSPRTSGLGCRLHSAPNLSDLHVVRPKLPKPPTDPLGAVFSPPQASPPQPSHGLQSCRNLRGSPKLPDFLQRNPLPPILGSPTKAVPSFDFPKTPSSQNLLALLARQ
Description: as §1, with “4:” for “3:”, “μL” for “uL”, “μM).” for “uM).”, “peptide” for “MBP”, “μL)” for “uL)”, “wells. Inhibitor IC50 was calculated by plotting the change in luminescence after 30 minutes (response) versus inhibitor concentration (in log molar) then applying the four-parameter variable slope curve fit (GraphPad Prism).” for “wells.”

| IC50 [1] | IC50 [2] | Structure (SMILES) |
| --- | --- | --- |
| < 10 nM |  | COCCS(=O)(=O)c1csc(-c2nc(Nc3cc4c(cc3C3CC3)CNCC4)ncc2C(F)(F)F)c1 [US20250144094, Example 65] |
| < 10 nM |  | CN1Cc2ccc(Nc3ncc(C(F)(F)F)c(-c4cc(S(C)(=O)=O)cs4)n3)cc2C1 [US20250144094, Example 81] |
| < 10 nM |  | CN1CCc2cc(Nc3ncc(C(F)(F)F)c(-c4cc(S(C)(=O)=O)cs4)n3)ccc2C1 [US20250144094, Example 106] |
| < 10 nM |  | CN1CCN(c2ccc(Nc3ncc(C(F)(F)F)c(-c4cc(S(C)(=O)=O)cs4)n3)c(Cl)c2)CC1 [US20250144094, Example 112] |
| < 10 nM |  | CS(=O)(=O)c1csc(-c2nc(Nc3cn(C4CNC4)nc3C3CC3)ncc2C(F)(F)F)c1 [US20250144094, Example 130] |
| < 10 nM |  | O=C1NCCS(=O)(=O)c2cc(-c3nc(Nc4cc5c(cc4F)CNCC5)ncc3C(F)(F)F)sc21 [US20250144094, Example 134] |
|  | < 5 nM | O=C1c2sc(-c3nc(Nc4cc5c(cc4Cl)CNCC5)ncc3C(F)(F)F)cc2S(=O)(=O)CCN1CC1CC1 [US20250144094, Example 153] |
|  | < 5 nM | CN1CCN(c2ccc(Nc3ncc(C(F)(F)F)c(-c4cc5c(s4)C(=O)N(C)CCS5(=O)=O)n3)c(Cl)c2)CC1 [US20250144094, Example 194] |
|  | < 5 nM | CCN1CCc2cc(Nc3ncc(C(F)(F)F)c(-c4cc5c(s4)C(=O)N(C4CCC4)CCS5(=O)=O)n3)c(C3CC3)cc2C1 [US20250144094, Example 226] |
|  | < 5 nM | CCc1cc2c(cc1Nc1ncc(C(F)(F)F)c(-c3cc4c(s3)C(=O)N(C3COC3)CCS4(=O)=O)n1)CCNC2 [US20250144094, Example 229] |
|  | < 5 nM | CCN1CCc2cc(Nc3ncc(C(F)(F)F)c(-c4cc5c(s4)C(=O)N(CC(F)(F)F)CCS5(=O)=O)n3)c(C3CC3)cc2C1 [US20250144094, Example 245] |
|  | < 5 nM | O=C1c2sc(-c3nc(Nc4ccc(N5CCN(CC6CC6)CC5)cc4C4CC4)ncc3C(F)(F)F)cc2S(=O)(=O)CCN1C1CC1 [US20250144094, Example 251] |
|  | < 5 nM | NC(=O)CN1CCc2cc(Nc3ncc(C(F)(F)F)c(-c4cc5c(s4)C(=O)N(C4CC4)CCS5(=O)=O)n3)c(C3CC3)cc2C1 [US20250144094, Example 278] |
|  | 7.5 nM | CCc1cc(C2CCNCC2)ccc1Nc1ncc(C(F)(F)F)c(-c2cc3c(s2)C(=O)N(C2CC2)CCS3(=O)=O)n1 [US20250144094, Example 281] |
|  | < 5 nM | O=C1c2sc(-c3nc(Nc4cc5c(cc4C4CC4)CN(CCF)CC5)ncc3C(F)(F)F)cc2S(=O)(=O)CCN1C1COC1 [US20250144094, Example 290] |
|  | < 5 nM | C[C@@H]1CN(c2ccc(Nc3ncc(C(F)(F)F)c(-c4cc5c(s4)C(=O)N(C)CCS5(=O)=O)n3)c(C3CC3)c2)CCN1 [US20250144094, Example 365] |
|  | < 5 nM | CN1CCS(=O)(=O)c2cc(-c3nc(Nc4ccc(N5CC6CC(C5)N6)cc4C4CC4)ncc3C(F)(F)F)sc2C1=O [US20250144094, Example 381] |

From BindingDB's records for patent US20250144094 (Erasca, 2025)
